In series [1] the target is DNA gyrase subunit B (Mycobacterium smegmatis, UniProt P0C559). The experiment in a line: Inhibition of Mycobacterium smegmatis DNA gyrase B expressed in BL21(DE3)pLysS cells assessed as inhibition of […] activity in presence of ATP measured after 30 mins by malachite green dye based assay. Format: cell-based, Mycolicibacterium smegmatis.
In series [2] the target is T1, DNA gyrase subunit A/DNA gyrase subunit B (Mycobacterium tuberculosis (strain ATCC 25618 / H37Rv), UniProt P9WG45+P9WG47). The experiment in a line: (§1) Inhibition of Mycobacterium tuberculosis DNA gyrase assessed as inhibition of DNA supercoiling activity using relaxed pBR322 as substrate incubated for 30 mins by ethidium bromide staining based agarose gel electrophoresis.

A short description of series [3]: Cytotoxicity against mouse RAW264.7 cells assessed as inhibition of cell viability at 100 uM measured after 72 hrs by MTT assay relative to control. Format: toxicity. The following applies: read-out: INH.
Series [4] relates to Mycobacterium tuberculosis. The experiment in a line: Inhibition of Mycobacterium tuberculosis topoisomerase-1 using DNA as substrate preincubated for 15 mins followed by substrate addition measured after 30 mins by ethidium-bromide based agarose gel electrophoresis.
For series [5], the target named is T1, DNA gyrase subunit A/DNA gyrase subunit B. The series can be described thus: Inhibition of Mycobacterium tuberculosis DNA gyrase assessed as inhibition of DNA supercoiling activity using relaxed pBR322 as substrate incubated for 30 mins in presence of ATP by ethidium bromide staining based agarose gel electrophoresis.
Series [6] can be described thus: Inhibition of Escherichia coli DNA gyrase assessed as inhibition of DNA supercoiling activity using relaxed pBR322 as substrate incubated for 30 mins in presence of ATP by ethidium bromide staining based agarose gel electrophoresis.
Series [7] can be described thus: Inhibition of Staphylococcus aureus WCUH29 DNA gyrase expressed in Escherichia coli Rosetta 2 (DE3) pLysS cells assessed as inhibition of DNA supercoiling activity using relaxed pBR322 as substrate incubated for 30 mins in presence of ATP by ethidium bromide staining based agarose gel electrophoresis.
Series [8] deals with DNA gyrase subunit A/DNA gyrase subunit B (Mycobacterium tuberculosis (strain ATCC 25618 / H37Rv)) (UniProt P9WG45+P9WG47). The series is described as §1.
The subject of series [9] is Mycobacterium tuberculosis. The experiment in a line: Antimycobacterial activity against Mycobacterium tuberculosis. Format: functional.
Series [10] concerns Escherichia coli. The series can be described thus: Antimicrobial activity against Escherichia coli. Format: functional.
The target of series [11] is DNA gyrase subunit B (Mycobacterium smegmatis) (UniProt P0C559). The series can be described thus: Inhibition of Mycobacterium smegmatis DNA gyrase-B ATPase activity after 30 mins by ammonium molybdate/malachite green-based phosphate detection assay. The following applies: Mycolicibacterium smegmatis.
The subject of series [12] is Mycobacterium tuberculosis. The series can be described thus: Antimycobacterial activity against Mycobacterium tuberculosis measured after 5 days by microplate alamar blue assay. Format: functional. To be noted: 120 h.

In brackets after ≈: the same amount, converted by molar mass. Where only a bound is given, the exact number is not on record here.

DNA gyrase subunit B, sequence (P0C559 whole entry): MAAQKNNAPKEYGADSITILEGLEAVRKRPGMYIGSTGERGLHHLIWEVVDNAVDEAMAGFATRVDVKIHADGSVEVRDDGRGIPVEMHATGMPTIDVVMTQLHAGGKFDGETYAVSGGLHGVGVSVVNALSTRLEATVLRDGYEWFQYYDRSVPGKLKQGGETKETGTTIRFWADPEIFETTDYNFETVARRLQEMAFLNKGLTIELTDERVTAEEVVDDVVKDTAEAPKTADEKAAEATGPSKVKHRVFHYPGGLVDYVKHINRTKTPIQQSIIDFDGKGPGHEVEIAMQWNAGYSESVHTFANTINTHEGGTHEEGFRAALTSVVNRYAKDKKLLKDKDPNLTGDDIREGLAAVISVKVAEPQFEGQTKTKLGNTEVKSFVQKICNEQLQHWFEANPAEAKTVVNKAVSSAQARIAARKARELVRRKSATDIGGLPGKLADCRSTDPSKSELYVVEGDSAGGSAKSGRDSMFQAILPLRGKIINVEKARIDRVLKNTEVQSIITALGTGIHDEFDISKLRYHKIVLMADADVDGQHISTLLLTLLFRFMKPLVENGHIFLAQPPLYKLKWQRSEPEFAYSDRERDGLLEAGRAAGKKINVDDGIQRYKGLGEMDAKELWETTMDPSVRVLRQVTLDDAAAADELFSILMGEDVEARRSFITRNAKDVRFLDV
T1 sequence (P9WG45 whole entry): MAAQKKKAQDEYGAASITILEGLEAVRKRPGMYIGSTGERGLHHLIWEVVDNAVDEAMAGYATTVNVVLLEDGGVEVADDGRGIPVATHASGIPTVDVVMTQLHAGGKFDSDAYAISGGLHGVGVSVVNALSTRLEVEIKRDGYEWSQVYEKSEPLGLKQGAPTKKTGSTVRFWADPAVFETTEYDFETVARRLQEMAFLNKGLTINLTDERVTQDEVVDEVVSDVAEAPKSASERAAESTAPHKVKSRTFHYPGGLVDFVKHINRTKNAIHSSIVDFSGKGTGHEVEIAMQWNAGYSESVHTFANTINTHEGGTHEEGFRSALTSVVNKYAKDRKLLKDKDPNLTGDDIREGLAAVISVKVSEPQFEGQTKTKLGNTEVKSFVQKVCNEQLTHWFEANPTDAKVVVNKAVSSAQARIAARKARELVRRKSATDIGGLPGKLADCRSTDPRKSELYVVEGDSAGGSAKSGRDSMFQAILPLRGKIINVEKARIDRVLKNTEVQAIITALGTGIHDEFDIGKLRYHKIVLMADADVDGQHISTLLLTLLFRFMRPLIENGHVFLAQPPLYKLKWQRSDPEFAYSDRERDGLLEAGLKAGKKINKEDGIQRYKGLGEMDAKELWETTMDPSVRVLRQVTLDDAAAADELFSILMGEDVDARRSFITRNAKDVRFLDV
T1 sequence (P9WG47 whole entry): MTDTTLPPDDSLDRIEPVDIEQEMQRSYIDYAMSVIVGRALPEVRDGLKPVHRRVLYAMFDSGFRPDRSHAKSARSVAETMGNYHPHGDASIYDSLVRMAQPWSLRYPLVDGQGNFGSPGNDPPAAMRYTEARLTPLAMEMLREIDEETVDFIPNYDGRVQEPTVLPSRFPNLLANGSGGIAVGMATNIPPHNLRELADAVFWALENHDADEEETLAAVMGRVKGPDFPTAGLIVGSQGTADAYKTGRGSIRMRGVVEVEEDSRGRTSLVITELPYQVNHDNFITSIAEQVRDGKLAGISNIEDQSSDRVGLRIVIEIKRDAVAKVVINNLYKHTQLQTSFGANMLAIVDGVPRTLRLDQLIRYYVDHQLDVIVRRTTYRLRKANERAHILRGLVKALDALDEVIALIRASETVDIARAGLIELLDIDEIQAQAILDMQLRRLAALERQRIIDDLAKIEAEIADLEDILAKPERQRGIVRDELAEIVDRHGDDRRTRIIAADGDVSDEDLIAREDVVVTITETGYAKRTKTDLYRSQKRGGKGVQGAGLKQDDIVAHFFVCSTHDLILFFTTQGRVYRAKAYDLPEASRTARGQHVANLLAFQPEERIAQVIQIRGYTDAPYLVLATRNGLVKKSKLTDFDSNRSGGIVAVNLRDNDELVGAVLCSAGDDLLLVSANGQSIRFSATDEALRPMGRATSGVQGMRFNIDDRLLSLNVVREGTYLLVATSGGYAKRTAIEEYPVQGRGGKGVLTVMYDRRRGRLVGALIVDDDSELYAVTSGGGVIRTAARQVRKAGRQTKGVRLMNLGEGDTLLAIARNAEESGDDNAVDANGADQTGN
DNA gyrase subunit B (Mycobacterium smegmatis), sequence (P0C559 2-675 limits assumed): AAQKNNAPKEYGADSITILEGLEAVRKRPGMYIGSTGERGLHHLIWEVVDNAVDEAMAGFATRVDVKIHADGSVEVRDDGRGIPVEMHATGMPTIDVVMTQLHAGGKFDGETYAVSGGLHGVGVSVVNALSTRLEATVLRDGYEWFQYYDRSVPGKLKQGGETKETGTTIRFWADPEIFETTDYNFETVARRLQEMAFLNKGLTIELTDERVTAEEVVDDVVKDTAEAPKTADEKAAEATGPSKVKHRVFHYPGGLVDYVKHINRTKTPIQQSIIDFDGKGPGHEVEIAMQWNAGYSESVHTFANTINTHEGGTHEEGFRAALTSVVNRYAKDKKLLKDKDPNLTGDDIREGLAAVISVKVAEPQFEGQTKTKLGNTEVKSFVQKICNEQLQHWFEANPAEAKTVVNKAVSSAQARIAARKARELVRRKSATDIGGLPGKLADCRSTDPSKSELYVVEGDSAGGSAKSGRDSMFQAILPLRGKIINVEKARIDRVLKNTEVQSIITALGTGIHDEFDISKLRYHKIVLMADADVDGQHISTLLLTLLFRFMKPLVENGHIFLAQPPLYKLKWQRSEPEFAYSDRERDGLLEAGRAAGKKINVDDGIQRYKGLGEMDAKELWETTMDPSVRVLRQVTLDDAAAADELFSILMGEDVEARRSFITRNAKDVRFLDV

Take `O=C1C(=O)N(CCN2CCN(NCc3ccc(Cl)cc3Cl)CC2)c2ccc(Cl)cc21`: the values for the IC50 in series [1] and in series [2] were 68 µM and 50 µM, respectively. In addition, in series [3], the cytotoxicity at 72 h, 100 µM was determined as 24%.
Regarding `Clc1cccc(-c2cnc3cc(-c4ccc5cn[nH]c5c4)cnc3n2)c1`, the INH in series [4] came out at 7.5 µM.
Turning to `Cc1cc(O)c2c(c1)C(=O)C(c1c(C)cc3c(c1O)C(=O)C=CC3=O)=CC2=O` [DIOSPYRIN], the IC50 is 15 µM in series [5], 4 µM in series [6] and 8 µM in series [7].
As for `Cc1ccc2c(c1)C(=O)C(=O)N2CCN1CCN(NCc2ccc(Cl)cc2Cl)CC1`, the IC50 in [1] is 79 µM; in [2] it was 48.9 µM. Moreover, the cytotoxicity at 72 h, 100 µM in series [3] came out at 25.3%.
Regarding `O=C1C(=O)N(CCN2CCN(NCc3ccc([N+](=O)[O-])o3)CC2)c2ccccc21`, the IC50 in series [1] worked out at 20.2 µM; in series [2], 4.6 µM. Besides, the cytotoxicity at 72 h, 100 µM in series [3] stood at 30.6%.
`Cc1cc(O)c2c(c1)C(=O)C=C(c1c(C)cc(O)c3c1C(=O)C=CC3=O)C2=O` [NEODIOSPYRIN]: in series [5], the concentration for half-maximal inhibition (IC50) is 50 µM.
Take `Clc1ccc(/N=N/c2cnc3cc4ccccc4cc3n2)cc1`: in series [8], the INH was determined as 12 µM.
With `O=C1COc2ccc(CNC3CCN(CCn4c(=O)ccc5cc(F)ccc54)CC3)nc2N1`, in series [9], the MIC lay within 300 to 2000 µg/mL (≈ 664 to 4430 µM).
Regarding `O=C1C(=O)N(CCN2CCN(NCc3ccccc3OCc3ccccc3)CC2)c2ccc(Cl)cc21`, the IC50 in series [1] is 13.8 µM; in series [2] it was 3.8 µM. Also, the cytotoxicity at 72 h, 100 µM in series [3] turned out to be 26.8%.
Take `Brc1c2ccccc2c(Br)c2nc(-c3ccco3)c(-c3ccco3)nc12`: the INH in series [4] worked out at 0.1 µM.
Take `COc1ccc2c(c1)C(=O)C(=O)N2CCN1CCN(NCc2ccc(Cl)cc2Cl)CC1`: the values for the IC50 in series [1] and in series [2] were 15.8 µM and 4.1 µM, respectively. In series [3], the cytotoxicity at 72 h, 100 µM worked out at 26.4%.
Turning to `Cc1cc(O)c2c(c1)C(O)CCC2=O` (configuration not stated), in [5], the IC50 was > 200 µM.
Regarding `O=C1C(=O)N(CCN2CCN(NCc3ccccc3OCc3ccccc3)CC2)c2ccccc21`, the IC50 worked out at 26.6 µM in series [1] and 10 µM in series [2]. Besides, in series [3], the cytotoxicity at 72 h, 100 µM is 13.9%.
In the case of `COc1ccc2c(c1)C(=O)C(=O)N2CCN1CCN(NCc2ccccc2C(F)(F)F)CC1`, the IC50 in series [1] came out at 61.5 µM; in [2] it was 39.1 µM. In [3], the cytotoxicity at 72 h, 100 µM is 10.5%.
With `O=C1C(=O)N(CCN2CCN(NCc3ccc(Cl)cc3Cl)CC2)c2ccccc21`, the figures for the IC50 in series [1] and in [2] were 84 µM and 40.3 µM, respectively. Moreover, in series [3], the cytotoxicity at 72 h, 100 µM is 18.5%.
With `COc1ccccc1CNN1CCN(CCN2C(=O)C(=O)c3cc(C)ccc32)CC1`, the figures for the IC50 in series [1] and in [2] were 14.1 µM and 5 µM, respectively. The cytotoxicity at 72 h, 100 µM in series [3] came to 9.42%.
Take `O=C1C(=O)N(CCN2CCN(NCc3ccccc3C(F)(F)F)CC2)c2ccc(Cl)cc21`: the IC50 in series [1] amounted to 22.1 µM; in series [2], 4.9 µM. The cytotoxicity at 72 h, 100 µM in [3] worked out at 16.4%.
The like results for `O=C1C(=O)N(CCN2CCN(NCc3ccccc3C(F)(F)F)CC2)c2ccc(F)cc21` were, in that order, 10.6 µM, 3.6 µM and 20.6%.
Turning to `Cc1ccc2c(c1)C(=O)C(=O)N2CCN1CCN(NCc2cccc(Cl)c2Cl)CC1`, the IC50 in series [1] stood at 53.6 µM; in series [2], 43.1 µM. Besides, the cytotoxicity at 72 h, 100 µM in [3] was determined as 27.8%.
Regarding `O=C1CSc2ccc(CNC3CCN(CC4CCN5C(=O)C=CC6N=CC(=O)N4C65)CC3)nc2N1` (configuration not stated), the minimum inhibitory concentration (MIC) in series [9] fell in the range of 300 to 2000 µg/mL (≈ 605 to 4040 µM).
For the compound `O=C1C(=O)N(CCN2CCN(NCc3ccccc3OCc3ccccc3)CC2)c2ccc(F)cc21`, the IC50 is 70.1 µM in [1] and 42.3 µM in series [2]. For the same compound, in [3], the cytotoxicity at 72 h, 100 µM is 11.7%.
As for `O=C1C(=O)N(CCN2CCN(NCc3cccc(Cl)c3Cl)CC2)c2ccc(Cl)cc21`, the figures for the IC50 in series [1] and in series [2] were 43.2 µM and 25.6 µM, respectively. Moreover, in series [3], the cytotoxicity at 72 h, 100 µM was found to be 17.4%.
Consider `COc1ccc2c(c1)C(=O)C(=O)N2CCN1CCN(NCc2ccccc2OC)CC1`, for which the IC50 came to 81.2 µM in series [1] and 48.6 µM in series [2]. Further, in series [3], the cytotoxicity at 72 h, 100 µM was 15.4%.
In [10], `CCCCCCN1CCC(CCC(O)c2ccnc3ccc(OC)cc23)C(CC)C1` (configuration not stated) registered a minimum inhibitory concentration (MIC) of 4000 µg/mL (≈ 9690 µM).
For `O=C1C(=O)N(CCN2CCN(NCc3ccccc3C(F)(F)F)CC2)c2ccccc21`, the values for the IC50 in [1] and in [2] were 51 µM and 25 µM, respectively. For the same compound, the cytotoxicity at 72 h, 100 µM in series [3] worked out at 4.2%.
With `O=C1C(=O)N(CCN2CCN(NCc3cccc(Cl)c3Cl)CC2)c2ccccc21`, the concentration for half-maximal inhibition (IC50) was 21.7 µM in series [1] and 4.8 µM in [2]. In series [3], the cytotoxicity at 72 h, 100 µM was found to be 16.8%.
In series [9], `COc1ccc2ncc(=O)n(-c3cnc4c(c3)CCC(NCc3ccc5c(n3)NC(=O)CO5)C4)c2n1` (configuration not stated) showed an MIC of 300 to 2000 µg/mL (≈ 618 to 4120 µM).
`O=C1COc2ccc(CNC3CCN(CC4CCc5c(F)ccc6ccc(=O)n4c56)CC3)nc2N1` (configuration not stated) displayed an MIC in series [9] of 300 to 2000 µg/mL (≈ 628 to 4190 µM).
`Cc1cc2c(c(O)c1-c1c(C)cc(O)c3c1C(=O)C=CC3=O)C(=O)C=CC2=O`: the half-maximal inhibitory concentration (IC50) in series [5] amounted to 100 µM.
On to `Cc1ccc(-c2cnc3cc(-c4ccc5[nH]ccc5c4)cnc3n2)cc1`, for which, in [4], the INH was found to be 0.1 µM.
With `Cc1cc(O)c2c(c1)C(=O)C=CC2=O` [RAMENTACEONE], the results for the IC50 in series [5], in series [6] and in series [7] were 30 µM, 30 µM and 60 µM, respectively.
Turning to `O=C1C(=O)N(CCN2CCN(NCc3ccc(Cl)cc3Cl)CC2)c2ccc(F)cc21`, the IC50 in [1] worked out at 43 µM; in series [2], 24.2 µM. In addition, the cytotoxicity at 72 h, 100 µM in [3] came out at 13.9%.
On to `COc1ccc2c(c1)C(=O)C(=O)N2CCN1CCN(NCc2cccc(Cl)c2Cl)CC1`, for which the values for the concentration for half-maximal inhibition (IC50) in series [1] and in [2] were 73 µM and 48.6 µM, respectively. Further, in series [3], the cytotoxicity at 72 h, 100 µM came to 23.9%.
Take `Fc1ccc(/N=N/c2cnc3cc4ccccc4cc3n2)cc1`: in series [8], the INH stood at 50 µM.
Consider `O=C1C(=O)N(CCN2CCN(NCc3ccc([N+](=O)[O-])o3)CC2)c2ccc(Cl)cc21`, for which the figures for the IC50 in [1] and in series [2] were 47.5 µM and 23.9 µM, respectively. Further, the cytotoxicity at 72 h, 100 µM in [3] is 34.2%.
Take `COc1ccc2c(c1)C(=O)C(=O)N2CCN1CCN(NCc2ccccc2)CC1`: the IC50 in series [1] was 92 µM; in series [2], 48.2 µM. The cytotoxicity at 72 h, 100 µM in series [3] amounted to 21.6%.
On to `COc1ccccc1CNN1CCN(CCN2C(=O)C(=O)c3cc(Cl)ccc32)CC1`, for which the IC50 in series [1] amounted to 76 µM; in series [2] it was 50 µM. The cytotoxicity at 72 h, 100 µM in series [3] was 24%.
Regarding `COc1ccc2c(c1)C(=O)C(=O)N2CCN1CCN(NCc2ccccc2OCc2ccccc2)CC1`, the IC50 in series [1] is 69.7 µM; in series [2], 36.5 µM. Moreover, the cytotoxicity at 72 h, 100 µM in series [3] is 16.3%.
For `O=C1C(=O)N(CCN2CCN(NCc3ccccc3F)CC2)c2ccc(F)cc21` the same measures were 20.3 µM, 4.2 µM and 22.1%.
On to `Cc1ccc2c(c1)C(=O)C(=O)N2CCN1CCN(NCc2ccccc2F)CC1`, for which the IC50 was determined as 76 µM in series [1] and 50 µM in series [2]. The cytotoxicity at 72 h, 100 µM in series [3] was 27.6%.
With `CC1=CC(=O)c2ccccc2C1=O` [MENADIONE], the IC50 in series [5] is > 200 µM.
Consider `Cn1ccc2cc(-c3cnc4nc(-c5ccccc5)cnc4c3)ccc21`, for which, in series [4], the INH came to 0.1 µM.
Regarding `CCNC(=O)Nc1nc2cc(-c3cncnc3)c(OCC3CCOCC3)nc2s1`, in [11], the INH was determined as 2.5 nM. The same compound displayed an MIC in [12] of 60 µg/mL (≈ 145 µM).
Turning to `O=C1C(=O)N(CCN2CCN(NCc3ccccc3F)CC2)c2ccccc21`, the figures for the IC50 in series [1] and in series [2] were 83 µM and 43.6 µM, respectively. Further, the cytotoxicity at 72 h, 100 µM in series [3] came to 10.3%.
In series [4], `c1ccc(N2CCC(Cc3nc4cc5ccccc5cc4nc3CN3CCN(c4ccccn4)CC3)CC2)nc1` displayed an INH of 7.5 µM.

The record behind these values is ChEMBL document CHEMBL3875146, “Mycobacterium Tuberculosis (MTB) GyrB inhibitors: An attractive approach for developing novel drugs against TB” (Eur J Med Chem, 2016).
